Measured values: patent publication US10485800B2, “Mixed lineage kinase inhibitors for HIV/AIDS therapies” (UNIVERSITY OF ROCHESTER, priority 2012, dated 2019)

Biological target: MLK3 (Homo sapiens (Human), UniProt Q16584)
Test: Radiometric filter plate MLK3 assay
Assay type: biochemical
Details: 2 μM cold ATP (Km), 1 μM inactive MKK7b, twenty minute incubation; read-out: MK3 IC50
Experimental: After a twenty minute incubation, the reactions were washed through filter plates and read on a scintillation counter. Results are shown in Table 9 below, in which +++ indicates ≤0.1 μM, ++ indicates >0.1 μM and ≤1 μM, and + indicates >1 μM.

MLK3, sequence (Q16584 whole entry): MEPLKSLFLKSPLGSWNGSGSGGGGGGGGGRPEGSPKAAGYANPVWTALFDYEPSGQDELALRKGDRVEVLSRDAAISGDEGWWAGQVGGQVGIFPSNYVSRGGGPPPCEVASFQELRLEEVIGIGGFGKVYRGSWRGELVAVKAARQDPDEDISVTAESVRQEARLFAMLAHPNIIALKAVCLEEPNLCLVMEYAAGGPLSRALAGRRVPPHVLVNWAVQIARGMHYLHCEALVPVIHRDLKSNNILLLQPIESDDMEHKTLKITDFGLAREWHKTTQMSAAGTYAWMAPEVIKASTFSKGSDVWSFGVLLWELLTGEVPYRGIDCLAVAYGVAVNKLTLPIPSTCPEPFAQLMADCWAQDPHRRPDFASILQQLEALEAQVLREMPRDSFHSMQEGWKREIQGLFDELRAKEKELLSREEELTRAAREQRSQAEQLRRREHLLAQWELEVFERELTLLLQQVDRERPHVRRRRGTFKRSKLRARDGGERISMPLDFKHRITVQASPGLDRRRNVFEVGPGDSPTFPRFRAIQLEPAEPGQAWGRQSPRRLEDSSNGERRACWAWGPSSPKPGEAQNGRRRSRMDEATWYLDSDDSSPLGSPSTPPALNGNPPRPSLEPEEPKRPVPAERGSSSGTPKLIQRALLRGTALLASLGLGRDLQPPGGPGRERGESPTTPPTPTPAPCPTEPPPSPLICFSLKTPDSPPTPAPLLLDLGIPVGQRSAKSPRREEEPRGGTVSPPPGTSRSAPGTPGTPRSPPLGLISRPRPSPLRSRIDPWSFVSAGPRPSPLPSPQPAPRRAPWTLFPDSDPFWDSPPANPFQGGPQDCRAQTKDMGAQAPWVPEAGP

| SMILES | IC50 [nM] |
| --- | --- |
| Nc1ncc(-c2cnc3[nH]cc(-c4cnc(N)nc4)c3c2)cn1 [Example 20, 5,5′-(1H-pyrrolo[2,3-b]pyridine-3,5-diyl)dipyrimidin-2-amine] | > 1000 |
| CN(C)c1ccc(-c2cnc3[nH]cc(-c4ccc(F)c(Cl)c4)c3c2)cn1 [Example 22, 5-(3-(3-chloro-4-fluorophenyl)-1H-pyrrolo[2,3-b]pyridin-5-yl)-N,N-dimethylpyridin-2-amine] | > 1000 |
| COc1ccc(-c2cnc3[nH]cc(-c4ccc(C(N)=O)cc4)c3c2)cc1OC [Example 26, 4-(5-(3,4-dimethoxyphenyl)-1H-pyrrolo[2,3-b]pyridin-3-yl)benzamide] | < 100 |
| Nc1ccc(-c2cnc3[nH]cc(-c4ccc(F)c(Cl)c4)c3c2)cn1 [Example 29, 5-(3-(3-chloro-4-fluorophenyl)-1H-pyrrolo[2,3-b]pyridin-5-yl)pyridin-2-amine] | > 1000 |
| CN(C)Cc1ccc(-c2cnc3[nH]cc(-c4ccc5[nH]ccc5c4)c3c2)cc1 [Example 33, 1-(4-(3-(1H-indol-5-yl)-1H-pyrrolo[2,3-b]pyridin-5-yl)phenyl)-N,N-dimethylmethanamine] | < 100 |
| COc1cc(-c2cnc3[nH]cc(-c4ccc5[nH]ccc5c4)c3c2)ccc1OCCN1CCNCC1 [Example 34, 3-(1H-indol-5-yl)-5-(3-methoxy-4-(2-(piperazin-1-yl)ethoxy)phenyl)-1H-pyrrolo[2,3-b]pyridine] | < 100 |
| COc1cc(-c2cnc3[nH]cc(-c4ccc5[nH]ccc5c4)c3c2)ccc1OCCN(C)C [Example 35, 2-(4-(3-(1H-indol-5-yl)-1H-pyrrolo[2,3-b]pyridin-5-yl)-2-methoxyphenoxy)-N,N-dimethylethanamine] | > 1000 |
| COc1ccc(-c2cnc3[nH]cc(-c4ccc5[nH]ccc5c4)c3n2)cc1OC [Example 37, 2-(3,4-dimethoxyphenyl)-7-(1H-indol-5-yl)-5H-pyrrolo[3,2-b]pyrazine] | < 100 |
| COc1cc(-c2cnc3[nH]cc(-c4ccc5[nH]ccc5c4)c3n2)ccc1N [Example 38, 4-(7-(1H-indol-5-yl)-5H-pyrrolo[3,2-b]pyrazin-2-yl)-2-methoxyaniline] | < 100 |
| COc1cc(-c2cnc3[nH]cc(-c4ccc5[nH]ccc5c4)c3n2)ccc1OCCN1CCOCC1 [Example 39, 4-(2-(4-(7-(1H-indol-5-yl)-5H-pyrrolo[3,2-b]pyrazin-2-yl)-2-methoxyphenoxy)ethyl)morpholine] | < 100 |
| COc1cc(-c2cnc3[nH]c(=O)n(-c4ccc5[nH]ccc5c4)c3n2)cc(OC)c1OC [Example 40, 1-(1H-indol-5-yl)-6-(3,4,5-trimethoxyphenyl)-1H-imidazo[4,5-b]pyrazin-2(3H)-one] | < 100 |
| Cn1ccc2cc(-n3c(=O)[nH]c4ncc(-c5ccc(O)cc5)nc43)ccc21 [Example 42, 6-(4-hydroxyphenyl)-1-(1-methyl-1H-indol-5-yl)-1H-imidazo[4,5-b]pyrazin-2(3H)-one] | > 1000 |
| Cc1cc(C)cc(-c2cnc3[nH]c(=O)n(-c4ccc5c(ccn5C)c4)c3n2)c1 [Example 43, 6-(3,5-dimethylphenyl)-1-(1-methyl-1H-indol-5-yl)-1H-imidazo[4,5-b]pyrazin-2(3H)-one] | > 1000 |
| O=c1[nH]c2ncc(-c3ccncc3)nc2n1-c1ccc2[nH]ccc2c1 [Example 44, 1-(1H-indol-5-yl)-6-(pyridin-4-yl)-1H-imidazo[4,5-b]pyrazin-2(3H)-one] | > 1000 |
| Cc1cc(C)cc(-c2cnc3[nH]c(=O)n(-c4ccc5[nH]ccc5c4)c3n2)c1 [Example 46, 6-(3,5-dimethylphenyl)-1-(1H-indol-5-yl)-1H-imidazo[4,5-b]pyrazin-2(3H)-one] | > 1000 |
| O=c1[nH]c2ncc(-c3cc(Cl)cc(Cl)c3)nc2n1-c1ccc2[nH]ccc2c1 [Example 48, 6-(3,5-dichlorophenyl)-1-(1H-indol-5-yl)-1H-imidazo[4,5-b]pyrazin-2(3H)-one] | > 1000 |
| COc1ccc(-c2cnc3[nH]c(=O)n(-c4ccc5[nH]ccc5c4)c3n2)cc1F [Example 49, 6-(3-fluoro-4-methoxyphenyl)-1-(1H-indol-5-yl)-1H-imidazo[4,5-b]pyrazin-2(3H)-one] | > 1000 |
| COc1cc(-c2cnc3[nH]c(=O)n(-c4ccc5[nH]ccc5c4)c3n2)ccc1O [Example 55, 6-(4-hydroxy-3-methoxyphenyl)-1-(1H-indol-5-yl)-1H-imidazo[4,5-b]pyrazin-2(3H)-one] | < 100 |
| O=c1[nH]c2ncc(-c3ccc4cc[nH]c4c3)nc2n1-c1ccc2[nH]ccc2c1 [Example 56, 1-(1H-indol-5-yl)-6-(1H-indol-6-yl)-1H-imidazo[4,5-b]pyrazin-2(3H)-one] | > 1000 |
| COc1cc(-c2cnc3[nH]c(=O)n(-c4ccc5[nH]ccc5c4)c3n2)ccc1OCCN1CCOCC1 [Example 57, 1-(1H-indol-5-yl)-6-(3-methoxy-4-(2-morpholinoethoxy)phenyl)-1H-imidazo[4,5-b]pyrazin-2(3H)-one] | < 100 |

More lines, now with the values ahead:

| IC50 [nM] | SMILES |
| --- | --- |
| < 100 | CC(=O)Nc1ccc(-c2cnc3[nH]cc(-c4ccc5[nH]ccc5c4)c3c2)cc1 [Example 3, N-(4-(3-(1H-indol-5-yl)-1H-pyrrolo[2,3-b]pyridin-5-yl)phenyl)acetamide] |
| < 100 | COc1cc(-c2cnc3[nH]cc(-c4ccc5[nH]ccc5c4)c3c2)ccc1N [Example 5, 4-(3-(1H-indol-5-yl)-1H-pyrrolo[2,3-b]pyridin-5-yl)-2-methoxyaniline] |
| < 100 | CN1CCN(c2cc(-c3cnc4[nH]cc(-c5ccc6[nH]ccc6c5)c4c3)ccn2)CC1 [Example 7, 3-(1H-indol-5-yl)-5-(2-(4-methylpiperazin-1-yl)pyridin-4-yl)-1H-pyrrolo[2,3-b]pyridine] |
| < 100 | Nc1ccc(-c2cnc3[nH]cc(-c4ccc5[nH]ccc5c4)c3c2)cc1 [Example 8, 4-(3-(1H-indol-5-yl)-1H-pyrrolo[2,3-b]pyridin-5-yl)aniline] |
| < 100 | CS(=O)(=O)Nc1ccc(-c2cnc3[nH]cc(-c4ccc5[nH]ccc5c4)c3c2)cc1 [Example 11, N-(4-(3-(1H-indol-5-yl)-1H-pyrrolo[2,3-b]pyridin-5-yl)phenyl)methanesulfonamide] |
| < 100 | COc1cc(-c2cnc3[nH]cc(-c4ccc(N)cc4)c3c2)cc(OC)c1OC [Example 15, 4-(5-(3,4,5-trimethoxyphenyl)-1H-pyrrolo[2,3-b]pyridin-3-yl)aniline] |
| < 100 | COc1cc(-c2cnc3[nH]cc(-c4ccc(NC(C)=O)cc4)c3c2)cc(OC)c1OC [Example 16, N-(4-(5-(3,4,5-trimethoxyphenyl)-1H-pyrrolo[2,3-b]pyridin-3-yl)phenyl)acetamide] |
| < 100 | COc1cc(-c2cnc3[nH]cc(-c4ccc(N(C)C)nc4)c3c2)cc(OC)c1OC [Example 19, N,N-dimethyl-5-(5-(3,4,5-trimethoxyphenyl)-1H-pyrrolo[2,3-b]pyridin-3-yl)pyridin-2-amine] |
| < 100 | COc1cc(-c2cnc3[nH]cc(-c4ccc5c(ccn5C)c4)c3c2)cc(OC)c1OC [Example 24, 3-(1-methyl-1H-indol-5-yl)-5-(3,4,5-trimethoxyphenyl)-1H-pyrrolo[2,3-b]pyridine] |
| < 100 | COc1cc(-c2cnc3[nH]cc(-c4ccc(C(N)=O)cc4)c3c2)cc(OC)c1OC [Example 25, 4-(5-(3,4,5-trimethoxyphenyl)-1H-pyrrolo[2,3-b]pyridin-3-yl)benzamide] |
